Experimental data: article PMC8294944 (Journal of agricultural and food chemistry, 2020)
Read-outs that look alike come from different tables or passages of the source.

Columns and labels:
[1] = biological target: T1, ERα (Ishikawa endometrial carcinoma cells) (Homo sapiens, UniProt P03372); test: Estrogen-responsive alkaline phosphatase assay in ERα positive Ishikawa cells; assay type: cell-based; conditions: for Emax: Ishikawa, read-out: ERα Maximum efficacy
T1 sequence (P03372 1-595): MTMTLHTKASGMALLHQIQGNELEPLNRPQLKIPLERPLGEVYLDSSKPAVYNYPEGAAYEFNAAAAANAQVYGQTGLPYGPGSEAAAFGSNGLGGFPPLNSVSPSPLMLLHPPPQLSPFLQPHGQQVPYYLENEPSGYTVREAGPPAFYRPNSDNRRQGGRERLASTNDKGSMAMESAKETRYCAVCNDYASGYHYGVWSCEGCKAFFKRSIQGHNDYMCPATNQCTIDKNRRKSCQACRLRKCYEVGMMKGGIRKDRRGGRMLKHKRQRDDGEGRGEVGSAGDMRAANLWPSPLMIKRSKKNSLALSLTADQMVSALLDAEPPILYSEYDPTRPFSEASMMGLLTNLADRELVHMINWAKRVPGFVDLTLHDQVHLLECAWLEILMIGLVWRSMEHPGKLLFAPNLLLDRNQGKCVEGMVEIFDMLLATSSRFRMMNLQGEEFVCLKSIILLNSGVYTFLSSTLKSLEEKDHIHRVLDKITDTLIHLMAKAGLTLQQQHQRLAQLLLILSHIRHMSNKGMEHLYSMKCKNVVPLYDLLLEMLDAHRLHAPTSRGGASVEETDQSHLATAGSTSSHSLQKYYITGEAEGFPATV

[2] = biological target: purified full length human recombinant ERβ (Homo sapiens, UniProt Q92731); test: ERβ competitive binding assay
purified full length human recombinant ERβ, sequence (Q92731 whole entry): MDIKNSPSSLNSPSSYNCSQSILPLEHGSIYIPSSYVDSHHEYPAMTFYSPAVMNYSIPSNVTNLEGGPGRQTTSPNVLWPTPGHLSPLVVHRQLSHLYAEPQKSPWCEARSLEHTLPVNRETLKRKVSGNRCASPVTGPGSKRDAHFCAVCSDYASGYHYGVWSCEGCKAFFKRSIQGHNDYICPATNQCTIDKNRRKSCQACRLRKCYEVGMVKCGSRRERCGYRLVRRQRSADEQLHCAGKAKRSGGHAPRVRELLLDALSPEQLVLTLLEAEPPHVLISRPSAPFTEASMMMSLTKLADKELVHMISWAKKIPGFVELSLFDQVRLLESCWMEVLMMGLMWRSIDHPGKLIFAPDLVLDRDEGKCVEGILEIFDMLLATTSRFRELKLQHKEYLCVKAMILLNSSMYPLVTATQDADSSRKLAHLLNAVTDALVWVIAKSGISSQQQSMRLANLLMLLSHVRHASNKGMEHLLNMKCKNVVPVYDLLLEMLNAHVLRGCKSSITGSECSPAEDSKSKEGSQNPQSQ

[3] = biological target: T2, purified full length human recombinant ERα (Homo sapiens, UniProt P03372); test: ERα competitive binding assay
T2 sequence (P03372 1-595): T1 sequence (P03372 1-595)

[4] = biological target: T1, ERα (Ishikawa endometrial carcinoma cells); conditions: read-out: ERα EC50 (LigF); compared with 8-PA; cited from earlier work
uterine tissue = conditions: 8-PN in dietary concentrations; cited from earlier work
[5] = alkaline phosphatase, Ishikawa cells, mean ± SEM
[6] = read-out: ERα EC50 (compounds), alkaline phosphatase, Ishikawa cells, mean ± SEM
[7] = relative to 17β-E2, [3H]-E2 tracer 20 nM

| Compound | ERα Maximum efficacy [1, 5] | EC50 [1, 6] [nM] | ERβ % RBA (relative binding affinity = IC50 E2/IC50 (iso)flavonoid x100) [2, 7] [%] | ERα % RBA (relative binding affinity = IC50 E2/IC50 (iso)flavonoid x100) [3, 7] [%] | EC50 [1] [nM] | Emax [1] [%] | other results |
| --- | --- | --- | --- | --- | --- | --- | --- |
| CC(C)=CCc1c(O)cc(O)c2c(=O)c(O)c(-c3ccc(O)cc3)oc12 [DMI, Desmethylicaritin] | 67 ± 12 | 200 ± 20 | – | – | – | – | – |
| Dehydrogenistein [DGN] | 84 ± 4.0 | 800 ± 100 | 14 | <0.002 | – | – | – |
| O=C1C[C@@H](c2ccc(O)cc2)Oc2cc(O)ccc21 [LigF, liquiritigenin] | – | – | – | – | – | – | EC50 [4]: 3400 nM |
| CC(C)=CCc1c(O)cc(O)c2c(=O)c(-c3ccc(O)cc3)coc12 [8-PG, 8-Prenylgenistein] | – | – | 0.9 | <0.002 | 500 ± 200 | 49 ± 10 | – |
| O=C1C[C@@H](c2ccc(O)cc2)Oc2cc(O)cc(O)c21 [NRG, naringenin] | – | – | – | – | 3700 ± 500 | 69 ± 6 | ERβ % RBA (relative binding affinity = IC50 E2/IC50 (iso)flavonoid x100) [2]: 0.05%; ERα % RBA (relative binding affinity = IC50 E2/IC50 (iso)flavonoid x100) [3]: <0.002% |
| CC(C)=CCc1c(O)cc(O)c2c1O[C@H](c1ccc(O)cc1)CC2=O [8-PN, 8-Prenylnaringenin] | – | – | – | – | – | – | Effect on uterine weight (uterine tissue): increased uterine weight |
